The source of these data is PMC7114316 (Antiviral Research, 2019).

Where two headings read alike, the source gives them in different places.

In one data set the target is FIPV 3CL^pro (Feline coronavirus, UniProt Q98VG9). Nature of the data set: FIPV 3CLpro protease inhibition assay. The class given is biochemical, feline infectious peritonitis virus (FIPV strain 79–1146). To be noted: for IC50: 35 nM enzyme, 6 μM fluorogenic substrate.
The next data set concerns CRFK cells. The data set can be described thus: Cytotoxicity assay. The format is cell-based, feline. Particulars: read-out: Cytotoxicity CC50, 48 h, MTS assay.
Data set [1] has as its system FIPV strain 79–1146. Nature of the data set: Antiviral assay, pre-viral entry activity. The format is cell-based, feline infectious peritonitis virus. To be noted: for EC50: read-out: Pre-viral entry EC50, IPMA, 24 h; for Pre-viral entry SI: SI = CC50/EC50.
Data set [2] deals with FIPV strain 79–1146. Nature of the data set: Antiviral assay, post-viral entry activity. The format is cell-based, feline infectious peritonitis virus. To be noted: for EC50: read-out: Post-viral entry EC50, IPMA; for Post-viral entry SI: SI = CC50/EC50.
Data set [3] has as its system FIPV strain 79–1146. The data set can be described thus: Antiviral assay, prophylactic activity. To be noted: for EC50: read-out: Prophylactic antiviral activity EC50, IPMA; for Prophylactic antiviral activity SI: SI = CC50/EC50; for concentration that completely protects the cells from virus infection: prophylactic or protective activity. The format is cell-based, feline infectious peritonitis virus.

In data set [4] the test system is FIPV strain 79–1146. Nature of the data set: Antiviral assay in FIPV-infected CRFK cells, summary over the test conditions. The format is cell-based, feline infectious peritonitis virus. To be noted: for control of FIPV infection under all the tested conditions: result in words; for EC50: Alphacoronavirus 1, CRFK, read-out: EC50, range over antiviral test conditions.

A short description of a further data set: Cytotoxicity assay. The format is cell-based, feline. To be noted: cat, CRFK cells.
The subject of the next data set is 3CL^pro of SARS-CoV. To be noted: read-out: IC50, 3CL^pro of SARS-CoV; cited from earlier work.
A further data set deals with HIV-1 integrase. Particulars: read-out: IC50, anti-HIV-1 integrase activities; ref Neamati et al., 1997; cited from earlier work.
[5] abbreviates: read-out: Protease inhibition assay (IC50).
Setting [6] is: 100 TCID50 FIPV incubation with compounds, CRFK cells.
The mark [7] stands for this setting: 100 TCID50 FIPV adsorption at 37 °C for 2 h before adding the tested compounds, CRFK cells.
Setting [8] is: compound incubation at 37 °C for 2 h before inoculation with FIPV at 100 TCID50/well, CRFK cells.
[9] abbreviates: Protease inhibition assay (IC50).

Sequence of FIPV 3CL^pro (Q98VG9 2904-3205 limits assumed): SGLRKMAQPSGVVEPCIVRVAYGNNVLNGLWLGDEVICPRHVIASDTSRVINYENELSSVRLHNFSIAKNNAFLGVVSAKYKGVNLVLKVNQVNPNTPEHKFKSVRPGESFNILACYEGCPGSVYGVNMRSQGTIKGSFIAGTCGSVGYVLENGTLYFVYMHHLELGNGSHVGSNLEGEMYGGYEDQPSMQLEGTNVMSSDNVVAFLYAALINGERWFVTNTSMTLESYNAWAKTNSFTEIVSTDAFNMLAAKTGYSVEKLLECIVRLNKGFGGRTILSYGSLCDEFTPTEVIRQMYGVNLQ

With `C=C1C[C@@]23CC[C@H]4[C@@](C)(CCC[C@@]4(C)C(=O)O)[C@@H]2CC[C@]1(O)C3` [CID452967], the IC50 on FIPV 3CL^pro (setting [5]) was greater than 500 µM.
In the case of `O=C1C(=O)N(Cc2ccc(Cc3ccc(CN4C(=O)C(=O)c5ccccc54)cc3)cc2)c2ccccc21` [CID3821945], at FIPV 3CL^pro (setting [5]), the IC50 came to 10.3 ± 2.5 µM. The CC50 in the data set on CRFK cells was 306.8 ± 0.175 µM. Also, the EC50 with FIPV strain 79–1146 [1] (setting [6]) was greater than 100 µM; in the data set with FIPV strain 79–1146 [2] (setting [7]) it was greater than 100 µM; in the data set with FIPV strain 79–1146 [3] (setting [8]), greater than 200 µM. Moreover, the “control of FIPV infection under all the tested conditions” value (from here on “control of FIPV infection”) in the data set with FIPV strain 79–1146 [4] was “could not control FIPV infection”.
As to `COc1cc(O)c2c(=O)cc(-c3ccc(O)c(O)c3)oc2c1` [CID5318214], at FIPV 3CL^pro (setting [5]), the IC50 is 28.5 ± 4.2 µM. Further, the CC50 with CRFK cells was 339.3 ± 0.03 µM. The EC50 with FIPV strain 79–1146 [1] (setting [6]) was greater than 100 µM; in the data set with FIPV strain 79–1146 [2] (setting [7]), greater than 100 µM; in the data set with FIPV strain 79–1146 [3] (setting [8]), greater than 200 µM. The “control of FIPV infection” value in the data set with FIPV strain 79–1146 [4] is “could not control FIPV infection”.
As for `Cc1ccc(S(=O)(=O)N/N=C\C=C\c2ccccc2)cc1` [CID5372747], at FIPV 3CL^pro (setting [5]), the IC50 was 78.4 ± 2.6 µM. Further, in the data set with CRFK cells, the CC50 came to 336.2 ± 0.13 µM. In addition, the EC50 was greater than 100 µM with FIPV strain 79–1146 [1] (setting [6]), greater than 200 µM in the data set on FIPV strain 79–1146 [2] (setting [7]) and greater than 200 µM in the data set with FIPV strain 79–1146 [3] (setting [8]). Besides, the “control of FIPV infection” value with FIPV strain 79–1146 [4] was “could not control FIPV infection”.
Take `C[C@@H]1O[C@@H](Oc2cc(O)c3c(=O)c(O)c(-c4ccc(O)c(O)c4)oc3c2)[C@H](O)[C@H](O)[C@H]1O` [CID5748601]: the IC50 at FIPV 3CL^pro (setting [5]) was found to be 77.2 ± 13.8 µM. Further, in the data set on CRFK cells, the CC50 amounted to 425.3 ± 0.13 µM. Besides, the EC50 was greater than 100 µM in the data set with FIPV strain 79–1146 [1] (setting [6]), greater than 100 µM with FIPV strain 79–1146 [2] (setting [7]) and greater than 200 µM with FIPV strain 79–1146 [3] (setting [8]). Also, the “control of FIPV infection” value in the data set with FIPV strain 79–1146 [4] is recorded as “could not control FIPV infection”.
Turning to `O=c1cc(-c2ccc(O)c(O)c2)oc2cc(OCc3ccccc3)cc(O)c12` [CID71313853], on FIPV 3CL^pro (setting [5]), the IC50 was greater than 500 µM.
On to `Cc1cccc(C)c1OCC(=O)N[C@@H](Cc1ccccc1)[C@@H](O)C[C@H](Cc1ccccc1)NC(=O)[C@H](C(C)C)N1CCCNC1=O` [Lopinavir, reference compound], for which the CC50 at 48 h in “Cytotoxicity assay” is greater than 500 µM. Also, the EC50 was 8.56 ± 0.47 µM with FIPV strain 79–1146 [1] (Alphacoronavirus 1, CRFK); 5.38 ± 2.32 µM with FIPV strain 79–1146 [2] (Alphacoronavirus 1, CRFK); 31.7 ± 1.37 µM in the data set with FIPV strain 79–1146 [3] (Alphacoronavirus 1, CRFK); 5.38 to 31.7 µM with FIPV strain 79–1146 [4]. The “Pre-viral entry SI” value in the data set on FIPV strain 79–1146 [1] is 61.52. Further, the “Post-viral entry SI” value in the data set on FIPV strain 79–1146 [2] came to 97.83. Also, the “Prophylactic antiviral activity SI” value in the data set on FIPV strain 79–1146 [3] turned out to be 16.61. The IC50 in the data set on 3CL^pro of SARS-CoV was roughly 50 µM.
In turn, `CC[C@](C)(O)C(=O)O[C@H]1C(=O)O[C@@H]2C[C@H]3C(C)=C[C@H](O)[C@@H](O)[C@]3(C)[C@H]3[C@]4(O)OC[C@]32[C@@H]1[C@@H](C)[C@H]4O` [NSC14975] showed an IC50 on FIPV 3CL^pro (setting [9]) greater than 500 µM.
`O=C1c2cc(O)c(O)cc2OC(c2ccc(O)c(O)c2)C1O` (centres unmarked) [NSC36398]: the IC50 at FIPV 3CL^pro (setting [5]) is greater than 500 µM.
Consider `C[C@]1(O)CC[C@H]2[C@@H]3CC[C@H]4C[C@@H](O)CC[C@]4(C)[C@@]3(F)[C@@H](O)C[C@@]21C` [NSC38273], for which the IC50 at FIPV 3CL^pro (setting [5]) is greater than 500 µM.
Compound `COc1cc(C)c2c(c1C=O)Oc1c(c(C)c(O)c3c1C(O)OC3=O)OC2=O` (centres unmarked) [NSC87511, Stictic acid] yielded a Ki on FIPV 3CL^pro (Ki value, competitive inhibition, 35 nM FIPV 3CL^pro, substrate 3 to 40 μM) of 17 ± 1.8 µM. Further, the IC50 against FIPV 3CL^pro (setting [9]) was 29.4 ± 4.6 µM; at HIV-1 integrase, less than 50 µM. This compound also returned a CC50 at 48 h in “Cytotoxicity assay” of 371.9 ± 0.26 µM. Also, the EC50 worked out at 16.2 ± 1.33 µM in the data set on FIPV strain 79–1146 [1] (Alphacoronavirus 1, CRFK); 21.8 ± 1.64 µM with FIPV strain 79–1146 [2] (Alphacoronavirus 1, CRFK); 26.9 ± 1.25 µM with FIPV strain 79–1146 [3] (Alphacoronavirus 1, CRFK). Further, the “Pre-viral entry SI” value with FIPV strain 79–1146 [1] is listed as 22.90. Also, the “Post-viral entry SI” value in the data set on FIPV strain 79–1146 [2] is on record as 17.04. The “Prophylactic antiviral activity SI” value in the data set on FIPV strain 79–1146 [3] was 13.80. Also, the “concentration that completely protects the cells from virus infection” value in the data set on FIPV strain 79–1146 [3] (CRFK cells) is 20 to 50 µM.
Regarding `CC[C@H]1CN2CCc3cc(OC)c(OC)cc3[C@@H]2C[C@@H]1C[C@H]1NCCc2c1[nH]c1ccc(O)cc21` [NSC131547], at FIPV 3CL^pro (setting [5]), the IC50 was greater than 500 µM.
As for `C/C(=C\COc1ccc2ccc(=O)oc2c1)C1=CC(=O)C(C)(C)O1` [NSC142227], the IC50 at FIPV 3CL^pro (setting [5]) was greater than 500 µM.
Take `CC(=O)O[C@@H]1[C@@H](O)C2=C3[C@]4(C)[C@@H]1C(C)(C)C(=O)C[C@@H]4[C@]3(O)[C@H](OC(C)=O)[C@@]1(C[C@@H]1C)C2=O` [NSC270914]: the IC50 on FIPV 3CL^pro (setting [5]) was greater than 500 µM.
Regarding `CO[C@H]1C[C@@H]2\C=C(C)/C=C/C=C\C(=O)N[C@H](c3ccccc3)C/C=C/CC[C@H](O)CC(=O)C2=C1O` [NSC343256, Hitachimycin], on FIPV 3CL^pro (setting [5]), the IC50 is 24.5 ± 8.9 µM. The cytotoxic concentration (CC50) in the data set on CRFK cells worked out at 56.9 ± 0.73 µM. Moreover, the “Pre-viral entry SI” value in the data set with FIPV strain 79–1146 [1] was 2.89. Further, the results for the EC50 in the data set with FIPV strain 79–1146 [1] (setting [6]), in the data set with FIPV strain 79–1146 [2] (setting [7]) and in the data set on FIPV strain 79–1146 [3] (setting [8]) were 3.83 ± 0.44 µM, 4 ± 0.37 µM and 16.2 ± 1.23 µM, respectively. In addition, in the data set on FIPV strain 79–1146 [2], the “Post-viral entry SI” value amounted to 2.77. Besides, the “concentration that completely protects the cells from virus infection” value with FIPV strain 79–1146 [3] (CRFK cells) lay in the range of 20 to 50 µM.
As for `CC1Oc2cc3c(-c4c(O)cc(O)c5c(O)c6c(cc45)OC(C)C(C)C6=O)c(O)cc(O)c3c(O)c2C(=O)C1C` (centres unmarked) [NSC345647, Chaetochromin], at FIPV 3CL^pro (setting [5]), the IC50 was determined as 6.3 ± 2.1 µM. In addition, the CC50 with CRFK cells amounted to 10.5 ± 0.13 µM. Also, the “Pre-viral entry SI” value in the data set on FIPV strain 79–1146 [1] was 8.88. Moreover, the values for the EC50 in the data set with FIPV strain 79–1146 [1] (setting [6]), in the data set with FIPV strain 79–1146 [2] (setting [7]) and in the data set with FIPV strain 79–1146 [3] (setting [8]) were 1.19 ± 0.95 µM, 4.87 ± 0.12 µM and 2.85 ± 0.52 µM, respectively. The “Post-viral entry SI” value in the data set with FIPV strain 79–1146 [2] is 2.20. For the same compound, in the data set on FIPV strain 79–1146 [3], the “Prophylactic antiviral activity SI” value amounted to 3.69. Further, the “concentration that completely protects the cells from virus infection” value in the data set with FIPV strain 79–1146 [3] (CRFK cells) fell in the range of 20 to 50 µM.
In the data set “Cytotoxicity assay”, `NC(=O)c1ncn([C@@H]2O[C@H](CO)[C@@H](O)[C@H]2O)n1` [Ribavirin, reference compound] returned a CC50 at 48 h greater than 500 µM. Further, the EC50 in the data set with FIPV strain 79–1146 [1] (Alphacoronavirus 1, CRFK) is 48.9 ± 1.77 µM; in the data set on FIPV strain 79–1146 [2] (Alphacoronavirus 1, CRFK), 73.98 ± 0.18 µM; in the data set on FIPV strain 79–1146 [3] (Alphacoronavirus 1, CRFK) it was greater than 200 µM; in the data set on FIPV strain 79–1146 [4], 48.9 to 74 µM. In the data set on FIPV strain 79–1146 [1], the “Pre-viral entry SI” value came to 25.68. In addition, the “Post-viral entry SI” value in the data set on FIPV strain 79–1146 [2] turned out to be 16.96. Besides, in the data set on FIPV strain 79–1146 [3] (result in words), the “antiviral effect in the prophylaxis study” value is recorded as “did not show an antiviral effect”.

Usually IC50 stands for the midpoint of a concentration-inhibition curve. One may read the CC50 as the concentration giving 50% cytotoxicity. Broadly, the EC50 is the concentration at which the effect is half-maximal. Broadly, the Ki is a dissociation constant, usually derived from enzyme kinetics or from competition with a known ligand.
